From PubChem BioAssay AID1959 (Broad Institute, 2009)
Calls of active or inactive are those of the source.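 Rule for the calls: active = growth-inhibition EC50 no more than tenfold above the top tested dose; inconclusive = flat fit between 30% and 70% inhibition, or unreliable fit; inactive = EC50 more than tenfold above the top tested dose.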

system: E. coli NEB5alpha growth, BacTiter-Glo luminescence, 4 h; test: Escherichia coli growth inhibition, dose response, counter-screen for MEX-5/POS-1 RNA-binding inhibitor project, luminescence, NEB5alpha (AID 1959);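 note: pUC19-transformed ampicillin-resistant cells grown in LB with ampicillin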

Structure (SMILES) | EC50
O=C(NCc1ccccn1)C1Nc2ccc(C(F)(F)F)cc2C2C=CCC12 (stereo unspecified) | > 11 µM (inactive)
CC1(OC(=O)c2cccs2)C(=O)C=C2C=C(c3ccc(C#N)cc3)OC=C2C1=O (stereo unspecified) | > 11 µM (inactive)
COc1ccc(C2C(C#N)=C(N)OC3=C2C(=O)CC(C)(C)C3)c([N+](=O)[O-])c1OC (stereo unspecified) | > 11 µM (inactive)
COC(=O)/C=C1\C(=O)N(c2nc3ccccc3s2)C(=S)N1c1ccc(F)cc1 | > 11 µM (inactive)
Cc1cc(C(=O)O)ccc1-n1c(C)cc(/C=C2\SC(=O)NC2=O)c1C | > 11 µM (inactive)
CC1CCN(c2nc3ccccc3nc2C(C#N)C(=O)NC2CCCCC2)CC1 (stereo unspecified) | > 11 µM (inactive)
Cc1ccc2c(c1C)NC(C(=O)O)C1CC=CC21 (stereo unspecified) | > 11 µM (inactive)
Oc1ccc(-c2csc(Nc3ccccn3)n2)cc1O | > 11 µM (inactive)
CN(C)CCCN=Cc1c(O)n(CCc2ccc(F)cc2)c(=O)[nH]c1=O | > 11 µM (inactive)
CCOC(=O)c1c(-n2c(C)cc(/C=C3/C(=O)NC(=O)N(CC)C3=O)c2C)sc2c1CCCC2 | > 11 µM (inactive)
COCCNC(=O)CCC(=O)NNc1nc2ccccc2c2nc(C)nn12 | > 11 µM (inactive)
O=C(CN1C(=O)C2CC=C(Cl)CC2C1=O)NCc1ccccc1 (stereo unspecified) | > 11 µM (inactive)
CN1CCN(/C=N/C2=C(C#N)C(c3ccccc3)C3=C(CC(C)(C)CC3=O)O2)CC1 (stereo unspecified) | > 11 µM (inactive)
Cc1c(N=Cc2c(O)n(Cc3ccccc3)c(=O)[nH]c2=O)c(=O)n(-c2ccccc2)n1C | > 11 µM (inactive)
CCCn1cc2c3c(cccc31)C1CC(C)CN(C)C1C2 (stereo unspecified) | > 11 µM (inactive)
Cc1c(Cl)cccc1N1C(=O)NC(=O)/C(=C\c2cc(C)n(-c3cccc(C(=O)O)c3C)c2C)C1=O | > 11 µM (inactive)
Nc1c(C(=O)c2ccc(Cl)cc2)sc2nsc(SCCN3CCOCC3)c12 | > 11 µM (inactive)
COC(=O)CCCC1=CC2=CC(=O)C(C)(OC(=O)c3cccs3)C(=O)C2=CO1 (stereo unspecified) | > 11 µM (inactive)
COC(=O)c1ccc(-n2c(C)cc(C(=O)COC(=O)CC3Sc4ccccc4NC3=O)c2C)cc1 (stereo unspecified) | > 11 µM (inactive)
COC(=O)CCC(=O)OC1(C)C(=O)C2=CN(CCc3ccccn3)C(c3ccc(OC)cc3)=CC2=C(Br)C1=O (stereo unspecified) | > 11 µM (inactive)
C=CCn1c(O)c(/C=C/C=Nc2ccccc2)c(=O)[nH]c1=O | > 11 µM (inactive)
Cc1nc(N=Nc2ccc(O)cc2)n[nH]1 | > 11 µM (inactive)

Structure (SMILES) | EC50
Cc1ccc(CN(C)C(=O)CC2C(=O)NCCN2CC2CCCCC2)cc1 (stereo unspecified) | > 11 µM (inactive)
COC(=O)c1c(NC(=O)CC2Nc3ccccc3NC2=O)sc(C)c1C (stereo unspecified) | > 11 µM (inactive)
CSc1sccc1/C=C(/C#N)C(=O)c1ccco1 | > 11 µM (inactive)
CCOc1ccc(-n2c(O)c(/C=N/c3ccnn3Cc3ccncc3)c3ccccc3c2=O)cc1 | > 11 µM (inactive)
Cc1cc(/C=C2\C(=O)NC(=O)N(c3ccc(Br)cc3)C2=O)c(C)n1-c1cc(C(=O)O)cc(C(=O)O)c1 | > 11 µM (inactive)
Cc1ccc(Cl)c2c1=NC(=O)C=2c1[nH]c(=S)[nH]c1O | > 11 µM (inactive)
Nc1ccc2nc(-c3ccccc3)c(-c3ccccc3)nc2c1 | > 11 µM (inactive)
COc1cc(C2C(C#N)=C(N)OC3=C2C(=O)CCC3)ccc1OC(=O)N1CCOCC1 (stereo unspecified) | > 11 µM (inactive)
O=C(NNC(=O)c1cc(Cl)ccc1[N+](=O)[O-])c1csc(N2CCOCC2)n1 | > 11 µM (inactive)
O=C1CSC(=S)N1/N=C/c1ccc(O)c(O)c1O | > 11 µM (inactive)
COc1cc(/C=C2/C(=O)NN(c3cccc(C)c3)C2=O)cc([N+](=O)[O-])c1O | > 11 µM (inactive)
Cn1c(=O)c(N)c2c3c(c(Br)ccc31)C(=O)c1ccccc1-2 | > 11 µM (inactive)
O=C(/C=C/c1ccc(O)c(O)c1)OC(Cc1ccc(O)c(O)c1)C(=O)O (stereo unspecified) | > 11 µM (inactive)
Cc1cc(C(=O)N/N=C/c2cc(Cl)cc([N+](=O)[O-])c2O)n[nH]1 | > 11 µM (inactive)
O=S(=O)(NNC(=S)Nc1ccc(S(=O)(=O)Nc2ncccn2)cc1)c1ccc(Br)cc1 | > 11 µM (inactive)
N#CC(C#N)=Cc1ccc(N2CCOCC2)cc1 | > 11 µM (inactive)
COc1ccc(C(=O)/C=C/Nc2ccc([N+](=O)[O-])cc2C)c(OC)c1 | > 11 µM (inactive)
CCn1cc(C=C2C(=O)N(C)C(=O)N(C)C2=O)c2ccccc21 | > 11 µM (inactive)
CC1=C[C@@H]2c3cccc4[nH]cc(c34)C[C@H]2N(C)C1 | > 11 µM (inactive)
Cc1cc(C(F)(F)F)c2c(N)c(C(=O)Nc3cc(C)on3)sc2n1 | > 11 µM (inactive)
N=c1c(C(=O)NC2CCCCC2)cc2c(=O)n3ccccc3nc2n1CCc1ccccc1 | > 11 µM (inactive)
CCOc1ccccc1-n1c(O)c(C=Nc2ccc(N(CC)CC)cc2)c(=O)[nH]c1=O | > 11 µM (inactive)

Structure (SMILES) | EC50
Cn1ncc(Cl)c1C(=O)N/N=C/c1cccc(OC2CSC2)c1 | > 11 µM (inactive)
COc1ccc(OC)c(-n2c(O)c(/C=C3\C=Nc4ccccc43)c(=O)[nH]c2=O)c1 | > 11 µM (inactive)
N#CC(C#N)=Cc1ccc(-c2ccc(S(=O)(=O)N=C(N)N)cc2)o1 | > 11 µM (inactive)
CCCN1C(=O)c2cccc3c(N4CCCCC4)ccc(c23)C1=O | > 11 µM (inactive)
Cc1cccc(N2C(=O)/C(=C/c3ccc(CN(CCC#N)S(C)(=O)=O)o3)C(=O)NC2=S)c1 | > 11 µM (inactive)
O/C=c1\ccc2cccc3nc(C(F)(F)F)nc1c23 | > 11 µM (inactive)
C=CCn1c(O)c(C=Nc2ccc(N(CC)CC)cc2)c(=O)[nH]c1=O | > 11 µM (inactive)
N#Cc1cc(NC2CCCC2)c([N+](=O)[O-])cc1C#N | > 11 µM (inactive)
Nc1cccc2c1C(=O)N(c1ccccc1)C2=O | > 11 µM (inactive)
O=c1oc2c3c4c(cc2s1)CCCN4CCC3 | > 11 µM (inactive)
O=c1[nH]n(-c2ncnc3c2cnn3-c2ccccc2)c(=O)c2ccccc12 | > 11 µM (inactive)
O=C(O)c1cccc(-n2cccc2/C=C2/SC(=O)N(CC(=O)N3CCCC3)C2=O)c1 | > 11 µM (inactive)
CCCCC1=CC2=CC(=O)C(C)(OC(=O)CCC(=O)OC)C(=O)C2=CO1 (stereo unspecified) | > 11 µM (inactive)
Cc1ccc(S(=O)(=O)/N=C2\C=C(Nc3cccc(C(=O)O)c3)C(=O)c3ccccc32)c(C)c1 | > 11 µM (inactive)
O=C1c2ccccc2C(=O)c2c1cccc2N(CCO)CCO | > 11 µM (inactive)
N#Cc1c(NC(=O)/C=C/C(=O)O)sc2c1CCN(Cc1ccccc1)C2 | > 11 µM (inactive)
COC(=O)Cn1cc(C=C2C(=O)NC(=O)NC2=O)c2ccccc21 | > 11 µM (inactive)
CC(C)c1ccc(/C=C(\NC(=O)c2ccccc2)C(=O)NCCN2CCOCC2)cc1 | > 11 µM (inactive)
O=C(N/N=C/c1c(O)n(Cc2ccc(F)cc2)c(=O)[nH]c1=O)c1ccccc1O | > 11 µM (inactive)
Cc1cc(C=C2C(=O)c3ccccc3C2=O)c(C)n1-c1ccc(Cl)cc1 | > 11 µM (inactive)
COC(=O)c1cc(C(=O)OC)cc(-n2c(C)cc(C(=O)CC#N)c2C)c1 | > 11 µM (inactive)
CCOC(=O)C1=C(O)/C(=C/c2cn(CC(=O)N3CCCC3)c3ccccc23)SC1=Nc1ccccc1 | > 11 µM (inactive)
